According to patent US20180207111A1, “IMMUNOTHERAPY FOR CASR-EXPRESSING CANCER (E.G. NEUROBLASTOMA)” (HOSPITAL SANT JOAN DE DEU, priority 2015, published 2018):

Test: Plasmatic ionic Ca2+ and tolerability in xenograft-bearing mice
Assay type: in vivo
From the text: FIG. 2 comprises graphs showing (A) Effect of Cinacalcet treatment on survival (%) in an in vivo neuroblastoma model treated with Cinacalcet (triangle) or vehicle (circle) over time (days); (B) Plasmatic ionic Ca^2+ concentrations (mmol/L) in mice receiving Cinacalcet (triangle) or vehicle (circle) over time (weeks).
An in vivo model of neuroblastoma was generated in four to six-week-old female athymic Nude-Foxn1 nu/nu mice (Charles Rivers), wherein LA-N-1 cells (10^7) were subcutaneously inoculated. Tumors were allowed to grow until dimensions reached 7×7 mm. Then mice were randomized to receive either vehicle (described below) or Cinacalcet (10 mg/kg/day) by oral gavage 6 days per week until tumor volume reached 2 cm^3. Cinacalcet was prepared with Mimpara® tablets (Amgen). […] Dimensions of tumors were measured thrice a week using a digital caliper. Tumor volume was calculated as L×W^2/2 in which “L” indicates length in mm and “W” indicates width in mm. At the end of the experiment (each mouse was sacrificed when the corresponding xenograft reached the final pre-determined volume 2 cm^3), tumors were excised and half of each specimen was frozen in liquid nitrogen for molecular analyses and the other was fixed in 10% formalin. […]

Question: With C[C@@H](NCCCc1cccc(C(F)(F)F)c1)c1cccc2ccccc12 [Cinacalcet] as the molecule, how does the “Plasmatic ionic Ca2+ concentration” value (mice, 10 mg/kg/day oral gavage, FIG. 2B) read?
Answer: Its value is “Mild, non-symptomatic, hypocalcemia”.

Question: And the Signs of toxicity (mouse, in vivo, po, 10 mg/kg/day)?
Answer: Its Signs of toxicity is “No signs of toxicity were observed”.
